US8318746B2, “Nitrogen-containing five-membered heterocyclic compound” (Takeda Pharmaceutical Company Limited, priority 2007, dated 2012)

Legend:
[1] = target: T1, GST-hLGK1 (GST added to the amino terminal of human liver GK) (Homo sapiens, UniProt P35557); experiment: Measurement of GK activation value; type: biochemical; conditions: test compound final concentration 10 μmol/L; reaction rate divided by that of control group (50% DMSO without test compound); Mant-ATP substrate, D-glucose, 37° C., 60 min
T1 construct: with a BamHI site added to immediately before the initiation codon; made in house; host or cells: Escherichia coli BL21 (Stratagene), plasmid pGEX6P-2/hLGK1
T1 sequence (P35557 1-464 isoform P35557-3): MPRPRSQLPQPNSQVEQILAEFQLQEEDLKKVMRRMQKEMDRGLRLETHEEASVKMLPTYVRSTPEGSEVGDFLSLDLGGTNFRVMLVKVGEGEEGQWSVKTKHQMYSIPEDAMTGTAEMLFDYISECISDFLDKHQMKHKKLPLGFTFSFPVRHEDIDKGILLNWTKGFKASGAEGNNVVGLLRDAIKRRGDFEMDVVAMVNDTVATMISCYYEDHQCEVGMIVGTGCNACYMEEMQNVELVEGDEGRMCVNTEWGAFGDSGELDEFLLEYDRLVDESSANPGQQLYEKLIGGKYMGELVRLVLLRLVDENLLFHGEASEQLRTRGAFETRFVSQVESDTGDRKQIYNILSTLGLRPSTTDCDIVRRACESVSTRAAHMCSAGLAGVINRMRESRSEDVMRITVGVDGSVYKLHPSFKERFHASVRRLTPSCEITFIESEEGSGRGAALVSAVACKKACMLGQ
Experimental: To each well of a 384-well black plate (Nalge Nunc International K.K.) was added 5 μL of 50% dimethyl sulfoxide solution containing test compound diluted to 100 μmol/L. Then, GST-hLGK1 obtained in Reference Example 2A was diluted with measurement buffer (containing 50 mM HEPES (pH 7.4), 200 mM KCl, 5 mM MgCl2, 2.5 mM DTT and 50 μM 2′-(or-3′)—O—(N-methylanthraniloyl) adenosine 5′-triphosphate (Mant-ATP) (Jena BioScience)) to 6 μg/mL and 35 μL thereof was added to each well.
Each well was stood at 37° C. for 10 min, 25 mM D-glucose solution (10 μL) was added to start the reaction. The final concentration of the test compound was 10 μmol/L.
Each, well after the reaction was stood at 37° C. for 60 min, and the reaction was quenched by adding 25 μL of a quenching solution (containing 200 mM HEPES (pH 7.4), 20 mM MgCl2, 200 mM EDTA, 0.03% Triton-X 100, 0.3% Coating 3 reagent (Caliper Life Sciences, Inc.)).
2′-(or-3′)-O-(N-methylanthraniloyl)adenosine 5′-triphosphate (Mant-ATP, substrate) and Mant-ADP (reaction resultant product) were separated from each well after the reaction by a microchip type capillary electrophoresis apparatus 250 HTS (Caliper Life Sciences, Inc.). The reaction rate [(reaction resultant product peak height)/(reaction resultant product peak height+substrate peak height)×100(%)] was calculated from the ratio of the substrate peak height and reaction resultant product peak height obtained by fluorescence detection (excitation wavelength 355 nm, measurement wavelength 460 nm) and used as the index of GK activity.
As a control group, the reaction rate was calculated in the same manner as above except that “solution in 50% dimethyl sulfoxide (without test compound)” was used instead of “solution of test compound in 50% dimethyl sulfoxide”.
The reaction rate of the well (test compound addition group) added with the test compound was divided by the reaction rate of the control group and the obtained percentage was taken as the GK activation value (Emax) of the test compound.

| SMILES | Emax at 10 µM [1] [%] | melting point [°C] |
| --- | --- | --- |
| CS(=O)(=O)c1ccc(C(CC2CCCC2)c2ccc(-c3cnccn3)[nH]2)cc1 (stereo not drawn) [Example 3, 2-(5-{2-cyclopentyl-1-[4-(methylsulfonyl)phenyl]ethyl}-1H-pyrrol-2-yl)pyrazine] | 180 | – |
| Cc1cc(C(CC2CCCC2)c2ccc(S(C)(=O)=O)cc2)[nH]c1-c1nccs1 (stereo not drawn) [Example 11, 2-(5-{2-cyclopentyl-1-[4-(methylsulfonyl)phenyl]ethyl}-3-methyl-1H-pyrrol-2-yl)-1,3-thiazole] | 160 | – |
| Cn1cnc(-c2ccc(C(CC3CCCC3)c3ccc(S(C)(=O)=O)cc3)[nH]2)c1 (stereo not drawn) [Example 5, 4-(5-{2-cyclopentyl-1-[4-(methylsulfonyl)phenyl]ethyl}-1H-pyrrol-2-yl)-1-methyl-1H-imidazole] | 167 | – |
| Cn1ccc(-c2ccc(C(CC3CCCC3)c3ccc(S(C)(=O)=O)cc3)[nH]2)n1 (stereo not drawn) [Example 6, 3-(5-{2-cyclopentyl-1-[4-(methylsulfonyl)phenyl]ethyl}-1H-pyrrol-2-yl)-1-methyl-1H-pyrazole] | 198 | – |
| O=C1CC[C@H](CC(c2ccc(S(=O)(=O)C3CC3)cc2)c2nc(F)c(C(=O)C3CCC3)[nH]2)C1 (stereo partly drawn) [Example 29, (3R)-3-{2-[5-(cyclobutylcarbonyl)-4-fluoro-1H-imidazol-2-yl]-2-[4-(cyclopropylsulfonyl)phenyl]ethyl}cyclopentanone] | 218 | – |
| CS(=O)(=O)c1ccc(C(CC2CCCC2)c2ccc(-c3ccccn3)[nH]2)cc1 (stereo not drawn) [Example 2, 2-(5-{2-cyclopentyl-1-[4-(methylsulfonyl)phenyl]ethyl}-1H-pyrrol-2-yl)pyridine] | 168 | – |
| O=C(c1[nH]c(C(CC2CCCC2)c2ccc(S(=O)(=O)C3CC3)cc2)nc1F)C1CC1 (stereo not drawn) [Example 24, (2-{2-cyclopentyl-1-[4-(cyclopropylsulfonyl)phenyl]ethyl}-4-fluoro-1H-imidazol-5-yl)(cyclopropyl)methanone] | 190 | – |
| Cc1cc(C(CC2CCCC2)c2ccc(S(C)(=O)=O)cc2)[nH]c1C(=O)O (stereo not drawn) [Example 9, 5-{2-cyclopentyl-1-[4-(methylsulfonyl)phenyl]ethyl}-3-methyl-1H-pyrrole-2-carboxylic acid] | 173 | – |
| O=S(=O)(c1ccc(C(CC2CCOCC2)c2ccc(-c3nccs3)[nH]2)cc1)C1CC1 (stereo not drawn) [Example 7, 2-{5-[1-[4-(cyclopropylsulfonyl)phenyl]-2-(tetrahydro-2H-pyran-4-yl)ethyl]-1H-pyrrol-2-yl}-1,3-thiazole] | 179 | – |
| CC(C)C(=O)c1[nH]c(C(CC2CCCC2)c2ccc(S(C)(=O)=O)cc2)nc1F (stereo not drawn) [Example 14, 1-(2-{2-cyclopentyl-1-[4-(methylsulfonyl)phenyl]ethyl}-4-fluoro-1H-imidazol-5-yl)-2-methylpropan-1-one] | 185 | – |

The next lines start with the values.

| Emax at 10 µM [1] [%] | melting point [°C] | SMILES |
| --- | --- | --- |
| 152 | 152 to 153 | O=S(=O)(c1ccc(C(CC2CCOCC2)c2ccc(-c3ccc(Cn4cncn4)cn3)[nH]2)cc1)C1CC1 (stereo not drawn) [Example 237, 2-(5-{1-[4-(cyclopropylsulfonyl)phenyl]-2-(tetrahydro-2H-pyran-4-yl)ethyl}-1H-pyrrol-2-yl)-5-(1H-1,2,4-triazol-1-ylmethyl)pyridine] |
| 167 | – | CC(O)c1cnc(-c2ccc(C(CC3CCOCC3)c3ccc(S(=O)(=O)C4CC4)cc3)[nH]2)s1 (stereo not drawn) [Example 151, 1-[2-(5-[1-[4-(cyclopropylsulfonyl)phenyl]-2-(tetrahydro-2H-pyran-4-yl)ethyl]-1H-pyrrol-2-yl)-1,3-thiazol-5-yl]ethanol] |
| 151 | – | O=S(=O)(c1ccc(C(CC2CCOCC2)c2ccc(-c3ccc(CN4CC[S+]([O-])CC4)cn3)[nH]2)cc1)C1CC1 (stereo not drawn) [Example 59, 4-{[6-(5-{1-[4-(cyclopropylsulfonyl)phenyl]-2-(tetrahydro-2H-pyran-4-yl)ethyl}-1H-pyrrol-2-yl)pyridin-3-yl]methyl}thiomorpholine 1-oxide] |
| 148 | – | CC(O)c1cnc(-c2ccc(C(CC3CCOCC3)c3ccc(S(C)(=O)=O)c(Cl)c3)[nH]2)s1 (stereo not drawn) [Example 172, 1-[2-(5-{1-[3-chloro-4-(methylsulfonyl)phenyl]-2-(tetrahydro-2H-pyran-4-yl)ethyl}-1H-pyrrol-2-yl)-1,3-thiazol-5-yl]ethanol] |
| 141 | – | CC(O)c1nnc(-c2ccc(C(CC3CCOCC3)c3ccc(S(=O)(=O)C4CC4)cc3)[nH]2)s1 (stereo not drawn) [Example 225, 1-[5-(5-{1-[4-(cyclopropylsulfonyl)phenyl]-2-(tetrahydro-2H-pyran-4-yl)ethyl}-1H-pyrrol-2-yl)-1,3,4-thiadiazol-2-yl]ethanol] |
| 142 | – | CS(=O)(=O)c1ccc(C(C[C@H]2CCC(=O)C2)c2ccc(-c3ccc(CO)cn3)[nH]2)cc1Cl (stereo partly drawn) [Example 197] |
| 153 | – | CC(=O)N1CCN(Cc2ccc(-c3ccc(C(CC4CCOCC4)c4ccc(S(=O)(=O)C5CC5)cc4)[nH]3)nc2)CC1 (stereo not drawn) [Example 62, 1-acetyl-4-{[6-(5-{1-[4-(cyclopropylsulfonyl)phenyl]-2-(tetrahydro-2H-pyran-4-yl)ethyl}-1H-pyrrol-2-yl)pyridin-3-yl]methyl}piperazine] |
| 155 | 127 to 129 | CCS(=O)(=O)CCNCc1cnc(-c2ccc(C(CC3CCOCC3)c3ccc(S(=O)(=O)C4CC4)cc3)[nH]2)s1.Cl (stereo not drawn) [Example 160, N-{[2-(5-{1-[4-(cyclopropylsulfonyl)phenyl]-2-(tetrahydro-2H-pyran-4-yl)ethyl}-1H-pyrrol-2-yl)-1,3-thiazol-5-yl]methyl}-2-(ethylsulfonyl)ethanamine hydrochloride] |
| 156 | – | O=S(=O)(c1ccc(C(CC2CCOCC2)c2ccc(-c3ccc(C(O)CO)cn3)[nH]2)cc1)C1CC1 (stereo not drawn) [Example 42, 1-[6-(5-{1-[4-(cyclopropylsulfonyl)phenyl]-2-(tetrahydro-2H-pyran-4-yl)ethyl}-1H-pyrrol-2-yl)pyridin-3-yl]ethane-1,2-diol] |
